How the values were obtained:
monochoria = assay: Test F flood (paddy) test; format: in vivo, Monochoria vaginalis; conditions: 21 d, scale 0-100
Procedure, shortened: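 Compounds were applied directly to paddy water held 3 cm above silt loam soil, with rice and weeds at the 2.0–2.5-leaf stage, grown in a greenhouse at 30/27° C under a 16-h photoperiod. Visual ratings (0 no effect to 100 complete control) were made against untreated controls after 21 d.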

nightshade = assay: Test E preemergence herbicide test; format: in vivo, Solanum ptycanthum; design: key: 0 = no effect, 100 = complete control
Source text: Seeds of plant species selected from corn (Zea mays), soybean (Glycine max), velvetleaf (Abutilon theophrasti), lambsquarters (Chenopodium album), wild poinsettia (Euphorbia heterophylla), pigweed, palmer (palmer pigweed, Amaranthus palmeri), waterhemp (common waterhemp, Amaranthus rudis), surinam grass (Brachiaria decumbens), crabgrass, large (large crabgrass, Digitaria sanguinalis), crabgrass, Brazil (Brazilian crabgrass, Digitaria horizontalis), panicum, fall (fall panicum, Panicum dichotomiflorum), foxtail, giant (giant foxtail, Setaria faberii), foxtail, green (green foxtail, Setaria viridis), goosegrass (Eleusine indica), johnsongrass (Sorghum halepense), ragweed (common ragweed, Ambrosia elatior), barnyardgrass (Echinochloa crus-galli), sandbur (southern sandbur, Cenchrus echinatus), arrowleaf […] rhombifolia), ryegrass, Italian (Italian ryegrass, Lolium multiflorum), dayflower, VA (Virginia dayflower, Commelina virginica), field bindweed (Convolvulus arvensis), morningglory (Ipomoea coccinea), nightshade (eastern black nightshade, Solanum ptycanthum), kochia (Kochia scoparia), nutsedge, yellow (yellow nutsedge, Cyperus esculentus), cocklebur (common cocklebur, Xanthium strumarium), smartweed (ladysthumb smartweed, Polygonum Persicaria) and beggarticks (hairy beggarticks, Bidens pilosa), were planted into a silt loam soil and treated preemergence with test chemicals formulated in a non-phytotoxic solvent mixture which included a surfactant. Treated plants and controls were maintained in a greenhouse for 21 days, after which time all species were compared to controls and visually evaluated. Plant response ratings, summarized in Table E, are based on a scale of 0 to 100 where 0 is no effect and 100 is complete control. A dash (-) response means no test result.

cocklebur = assay: Test C pre-/postemergence herbicide test; format: in vivo, Xanthium strumarium
Procedure, shortened: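 Response scores range from 0, meaning no effect, to 100, meaning complete control, assigned visually by comparison with controls roughly two weeks (13 to 15 days) after spraying. Applications were made preemergence to seeded loam–sand soil and postemergence to 1- to 4-leaf plants.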

O=C1NCC(c2ccc(F)c(F)c2)C1C(=O)Nc1cccc(F)c1F (stereo not shown) [Compound 17, N-(2,3-difluorophenyl)-4-(3,4-difluorophenyl)-2-oxo-3-pyrrolidinecarboxamide]
Plant response rating, Monochoria (monochoria; 125 g ai/ha): 90 | Plant response rating, Monochoria (monochoria; 250 g ai/ha): 90 | Plant response rating, Monochoria (monochoria; 500 g ai/ha): 95 | Plant response rating, Monochoria (monochoria; 1000 g ai/ha): 95 | Plant response rating, Monochoria (monochoria; 2000 g ai/ha): 95 | Plant response rating, Nightshade (nightshade; 16 g ai/ha): 0 | Plant response rating, Nightshade (nightshade; 62 g ai/ha): 0 | Plant response rating, Nightshade (nightshade; 125 g ai/ha): 0 | Plant response rating, Nightshade (nightshade; 250 g ai/ha): 0 | Plant response rating, Cocklebur (cocklebur; Postemergence, 31 g ai/ha, scale 0 (no effect) to 100 (complete control)): 0 | Plant response rating, Cocklebur (cocklebur; Postemergence, 62 g ai/ha, scale 0 to 100 (0 no effect, 100 complete control)): 0 | Plant response rating, Cocklebur (cocklebur; Postemergence, 125 g ai/ha, scale 0 to 100 (0 no effect, 100 complete control)): 0 | Plant response rating, Cocklebur (cocklebur; Postemergence, 250 g ai/ha, scale 0 to 100 (0 no effect, 100 complete control)): 0 | Plant response rating, Cocklebur (cocklebur; Preemergence, 62 g ai/ha, scale 0 to 100): 5 | Plant response rating, Cocklebur (cocklebur; Preemergence, 125 g ai/ha, scale 0 to 100 (0 no effect, 100 complete control)): 5 | Cocklebur plant response rating (cocklebur; Preemergence, 31 g ai/ha, scale 0 to 100 (0 no effect, 100 complete control)): 0 | Plant response rating, Cocklebur (cocklebur; Preemergence, 250 g ai/ha, scale 0 to 100 (0 no effect, 100 complete control)): 5

O=C1NC[C@H](c2cccc(C(F)(F)F)c2)[C@H]1C(=O)Nc1cccc(F)c1F [Compound 206]
Plant response rating, Monochoria (monochoria; 64 g ai/ha): 80 | Plant response rating, Monochoria (monochoria; 125 g ai/ha): 90 | Plant response rating, Monochoria (monochoria; 250 g ai/ha): 100 | Plant response rating, Monochoria (monochoria; 500 g ai/ha): 100 | Plant response rating, Nightshade (nightshade; 31 g ai/ha): 0 | Plant response rating, Nightshade (nightshade; 62 g ai/ha): 0 | Plant response rating, Nightshade (nightshade; 125 g ai/ha): 5 | Plant response rating, Nightshade (nightshade; 250 g ai/ha): 10

Source: US10294202B2, “Pyrrolidinones as herbicides” (FMC Corporation, priority 2013, dated 2019)
